This is an account of results in patent US20230272448A1, “AN IMPROVED SUBSTRATE COCKTAIL ASSAY FOR HIGH-THROUGHPUT SCREENING OF CYTOCHROME P450 INHIBITORS” (priority 2020, published 2023).

The structures appear in SMILES notation.

One series addresses T1, CYP2A6 (Homo sapiens, UniProt P11509).
T1 sequence (P11509 1-494): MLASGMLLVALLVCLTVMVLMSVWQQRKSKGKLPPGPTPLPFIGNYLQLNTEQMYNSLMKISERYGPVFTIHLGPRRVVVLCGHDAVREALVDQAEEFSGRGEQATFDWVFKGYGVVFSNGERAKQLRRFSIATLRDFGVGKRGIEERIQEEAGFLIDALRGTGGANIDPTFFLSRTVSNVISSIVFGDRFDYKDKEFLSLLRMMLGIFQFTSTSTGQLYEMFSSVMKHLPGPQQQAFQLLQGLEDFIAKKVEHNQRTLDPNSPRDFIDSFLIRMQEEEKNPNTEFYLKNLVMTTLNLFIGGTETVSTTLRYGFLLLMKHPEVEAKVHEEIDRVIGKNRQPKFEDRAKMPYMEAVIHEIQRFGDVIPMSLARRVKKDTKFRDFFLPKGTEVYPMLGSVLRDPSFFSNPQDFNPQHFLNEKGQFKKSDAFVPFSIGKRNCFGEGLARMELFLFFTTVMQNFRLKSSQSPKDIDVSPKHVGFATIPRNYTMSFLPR
To be noted: literature reported Km; metabolite hydroxyl-coumarine; cited from earlier work.

The target in series [1] is T2, CYP2C8 (Homo sapiens, UniProt P10632).
T2 sequence (P10632 1-490): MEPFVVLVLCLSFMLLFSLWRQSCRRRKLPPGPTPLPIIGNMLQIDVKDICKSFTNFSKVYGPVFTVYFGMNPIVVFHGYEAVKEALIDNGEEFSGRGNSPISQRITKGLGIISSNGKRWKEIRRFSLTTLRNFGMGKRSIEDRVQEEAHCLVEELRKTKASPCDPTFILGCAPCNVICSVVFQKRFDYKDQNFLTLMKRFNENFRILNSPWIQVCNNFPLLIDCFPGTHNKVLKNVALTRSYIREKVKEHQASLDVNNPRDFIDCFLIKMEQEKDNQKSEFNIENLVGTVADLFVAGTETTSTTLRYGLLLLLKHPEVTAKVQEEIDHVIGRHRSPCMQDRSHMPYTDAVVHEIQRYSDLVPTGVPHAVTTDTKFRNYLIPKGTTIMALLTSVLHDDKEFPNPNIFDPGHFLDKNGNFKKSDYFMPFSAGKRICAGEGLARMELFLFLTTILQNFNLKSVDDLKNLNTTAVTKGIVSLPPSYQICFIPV
Conditions: literature reported Km; metabolite 6-alpha hydroxyl-paclitaxel; cited from earlier work.

The target in series [2] is T3, CYP2B6 (Homo sapiens, UniProt P20813).
T3 sequence (P20813 1-491): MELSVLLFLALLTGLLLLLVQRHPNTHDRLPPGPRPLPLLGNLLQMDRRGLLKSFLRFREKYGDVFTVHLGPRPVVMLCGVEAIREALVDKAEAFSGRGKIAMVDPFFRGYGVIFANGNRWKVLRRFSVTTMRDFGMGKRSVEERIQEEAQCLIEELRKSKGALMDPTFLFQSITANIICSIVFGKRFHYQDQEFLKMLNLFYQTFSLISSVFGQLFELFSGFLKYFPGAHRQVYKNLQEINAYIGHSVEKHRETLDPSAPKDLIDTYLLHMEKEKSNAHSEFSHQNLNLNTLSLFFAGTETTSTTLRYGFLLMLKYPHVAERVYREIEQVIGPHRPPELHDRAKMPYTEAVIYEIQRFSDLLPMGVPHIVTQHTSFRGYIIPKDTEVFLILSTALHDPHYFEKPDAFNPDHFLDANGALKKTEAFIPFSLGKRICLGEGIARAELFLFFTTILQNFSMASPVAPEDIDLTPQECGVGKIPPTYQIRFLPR
To be noted: literature reported Km; metabolite hydroxyl-bupropion; cited from earlier work.

Series [3] has as its target T4, CYP3A4 (Homo sapiens, UniProt P08684). Conditions: literature reported Km; metabolite hydroxyl-testosterone; cited from earlier work.
The target in series [4] is T4, CYP3A4. Conditions: reported; cited from earlier work.
Series [5] concerns the target T3, CYP2B6. Conditions: reported; cited from earlier work.
In series [6] the target is T2, CYP2C8. Briefly: Single substrate (individual) CYP inhibition assay in human liver microsomes, LC-MS/MS. Conditions: read-out: Single Substrate IC50; substrate Paclitaxel 5 μM; HLM 0.2 mg/mL; 30 min; n = 4. In general terms: Liver microsomes are vesicles of endoplasmic reticulum, rich in cytochrome P450 enzymes.
The target in the next series is CYP2C9 (Homo sapiens, UniProt P11712). Conditions: literature reported Km; metabolite hydroxyl-diclofenac; cited from earlier work.
Sequence of CYP2C9 (P11712 whole entry): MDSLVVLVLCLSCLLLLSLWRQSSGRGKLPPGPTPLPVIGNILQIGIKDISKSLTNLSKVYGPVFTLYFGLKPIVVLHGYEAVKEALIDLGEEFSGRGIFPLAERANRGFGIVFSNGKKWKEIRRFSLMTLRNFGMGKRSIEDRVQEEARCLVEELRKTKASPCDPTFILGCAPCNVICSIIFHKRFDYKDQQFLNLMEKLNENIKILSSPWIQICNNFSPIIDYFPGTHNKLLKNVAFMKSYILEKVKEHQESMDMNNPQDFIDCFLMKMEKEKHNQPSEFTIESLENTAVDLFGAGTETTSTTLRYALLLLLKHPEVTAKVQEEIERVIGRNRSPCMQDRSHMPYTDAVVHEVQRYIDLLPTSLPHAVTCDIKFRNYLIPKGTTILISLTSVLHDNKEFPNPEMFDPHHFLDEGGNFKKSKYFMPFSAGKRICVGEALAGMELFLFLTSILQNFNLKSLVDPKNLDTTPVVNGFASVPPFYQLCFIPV

By Km is commonly meant the substrate concentration at which the rate is half of its maximum. Broadly, the IC50 is the concentration needed to halve the response being measured.

T4 sequence (P08684 whole entry): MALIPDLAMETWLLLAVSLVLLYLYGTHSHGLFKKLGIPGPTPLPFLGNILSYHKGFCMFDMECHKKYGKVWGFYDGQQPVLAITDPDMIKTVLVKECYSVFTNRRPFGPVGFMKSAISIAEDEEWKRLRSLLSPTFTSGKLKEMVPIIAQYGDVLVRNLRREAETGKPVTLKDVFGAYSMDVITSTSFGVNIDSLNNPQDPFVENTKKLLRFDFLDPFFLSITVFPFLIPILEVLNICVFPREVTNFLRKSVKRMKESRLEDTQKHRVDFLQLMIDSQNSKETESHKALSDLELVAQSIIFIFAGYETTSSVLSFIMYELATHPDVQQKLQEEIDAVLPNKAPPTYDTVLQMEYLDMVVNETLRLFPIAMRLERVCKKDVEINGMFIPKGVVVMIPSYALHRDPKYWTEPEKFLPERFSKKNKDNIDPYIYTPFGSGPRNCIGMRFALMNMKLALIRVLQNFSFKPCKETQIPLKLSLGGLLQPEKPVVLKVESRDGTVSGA

For `O=c1ccc2ccccc2o1` [Coumarin], the Km at CYP2A6 was 1.17 ± 0.118 µM.
On to `CC(=O)O[C@H]1C(=O)[C@@]2(C)[C@H]([C@H](OC(=O)c3ccccc3)[C@]3(O)C[C@H](OC(=O)[C@H](O)[C@@H](NC(=O)c4ccccc4)c4ccccc4)C(C)=C1C3(C)C)[C@]1(OC(C)=O)CO[C@@H]1C[C@@H]2O` [Paclitaxel], for which the Km at CYP2C8 [1] is 11.5 ± 7.5 µM.
Regarding `CC(NC(C)(C)C)C(=O)c1cccc(Cl)c1` (centres unmarked) [Bupropion], the Km at CYP2B6 [2] was 103 ± 7.65 µM.
As for `C[C@]12CC[C@H]3[C@@H](CCC4=CC(=O)CC[C@@]43C)[C@@H]1CC[C@@H]2O` [Testosterone], the Km at CYP3A4 [3] was 48.5 ± 3.75 µM.
For `CCOc1ccc(NC(C)=O)cc1` [Phenacetin], the “Inhibition of CYP3A4 by probe substrate” value on CYP3A4 [4] is “weakly inhibit”. Also, the “Inhibition of CYP2B6 by probe substrate” value at CYP2B6 [5] was “weakly inhibit”.
As to `CC(C)(O)c1ccccc1CC[C@@H](SCC1(CC(=O)O)CC1)c1cccc(/C=C/c2ccc3ccc(Cl)cc3n2)c1` [Montelukast], the IC50 at CYP2C8 [6] was determined as 521 nM.
Consider `O=C(O)Cc1ccccc1Nc1c(Cl)cccc1Cl` [Diclofenac], for which, at CYP2C9, the Km is 22 ± 11 µM.
